# Measurements published in patent US11179383B2 (Gilead Sciences, Inc., priority 2018, dated 2021).
# Molecular target: T1, α4β7 integrin (Homo sapiens, UniProt P13612+P26010)
# T1 construct: monitoring the capture of α4β7 integrin expressing cells on a recombinant MadCAM-1 extracellular domain-coated plate; endogenous in cells; host or cells: RPMI8866 cells
# T1 sequence (P13612 34-1032): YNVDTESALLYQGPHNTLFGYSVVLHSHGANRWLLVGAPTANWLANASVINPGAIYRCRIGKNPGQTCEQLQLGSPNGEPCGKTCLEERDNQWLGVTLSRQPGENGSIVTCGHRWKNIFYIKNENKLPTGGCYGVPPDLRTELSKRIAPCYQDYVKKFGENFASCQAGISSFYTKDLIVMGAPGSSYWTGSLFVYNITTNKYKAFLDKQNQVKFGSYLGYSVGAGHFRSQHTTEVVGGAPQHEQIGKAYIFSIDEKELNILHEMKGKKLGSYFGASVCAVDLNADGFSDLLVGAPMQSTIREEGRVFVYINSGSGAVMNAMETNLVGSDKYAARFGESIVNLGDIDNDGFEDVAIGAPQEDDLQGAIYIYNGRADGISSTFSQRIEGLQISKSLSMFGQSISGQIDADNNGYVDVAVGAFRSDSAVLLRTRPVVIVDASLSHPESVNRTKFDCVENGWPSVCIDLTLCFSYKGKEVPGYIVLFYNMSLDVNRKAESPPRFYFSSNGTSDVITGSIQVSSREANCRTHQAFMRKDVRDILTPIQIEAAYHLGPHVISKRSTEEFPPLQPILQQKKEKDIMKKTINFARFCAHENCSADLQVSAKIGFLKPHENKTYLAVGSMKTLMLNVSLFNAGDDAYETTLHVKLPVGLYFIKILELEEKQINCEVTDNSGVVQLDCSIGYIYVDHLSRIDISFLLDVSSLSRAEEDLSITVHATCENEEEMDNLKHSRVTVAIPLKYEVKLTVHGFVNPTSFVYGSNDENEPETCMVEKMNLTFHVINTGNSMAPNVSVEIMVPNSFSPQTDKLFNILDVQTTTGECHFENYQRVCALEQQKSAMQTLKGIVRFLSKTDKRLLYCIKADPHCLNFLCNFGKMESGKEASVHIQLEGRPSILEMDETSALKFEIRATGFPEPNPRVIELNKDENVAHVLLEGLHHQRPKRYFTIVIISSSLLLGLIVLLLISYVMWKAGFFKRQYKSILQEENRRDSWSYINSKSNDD
# T1 sequence (P26010 20-798): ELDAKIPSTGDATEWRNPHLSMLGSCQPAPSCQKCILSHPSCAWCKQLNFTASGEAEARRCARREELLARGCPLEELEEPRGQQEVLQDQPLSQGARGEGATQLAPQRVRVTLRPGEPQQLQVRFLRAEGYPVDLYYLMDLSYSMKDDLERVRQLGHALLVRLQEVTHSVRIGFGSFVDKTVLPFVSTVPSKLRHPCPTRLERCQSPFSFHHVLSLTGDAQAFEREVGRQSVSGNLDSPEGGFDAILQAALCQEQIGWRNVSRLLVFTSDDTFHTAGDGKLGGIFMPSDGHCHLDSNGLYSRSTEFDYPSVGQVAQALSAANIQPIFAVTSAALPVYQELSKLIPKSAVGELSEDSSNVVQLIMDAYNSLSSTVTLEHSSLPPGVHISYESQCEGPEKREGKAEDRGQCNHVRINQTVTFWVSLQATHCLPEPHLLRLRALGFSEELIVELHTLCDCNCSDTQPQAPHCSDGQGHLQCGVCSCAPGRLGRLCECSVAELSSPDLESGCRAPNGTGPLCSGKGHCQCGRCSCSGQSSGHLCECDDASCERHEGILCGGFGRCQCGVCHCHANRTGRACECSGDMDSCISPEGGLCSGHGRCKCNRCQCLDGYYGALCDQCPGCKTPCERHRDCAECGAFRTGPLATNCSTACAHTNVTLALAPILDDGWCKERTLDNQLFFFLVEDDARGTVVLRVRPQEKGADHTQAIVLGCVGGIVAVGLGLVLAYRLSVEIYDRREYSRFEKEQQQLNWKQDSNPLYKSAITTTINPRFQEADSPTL
# Assay: α4β7 Integrin Cell Capture Assay
# Format: cell-based
# Conditions: capture of α4β7 integrin expressing RPMI8866 cells on recombinant MadCAM-1 extracellular domain-coated plate; DMEM+0.5% FBS+0.5 mM MnCl2; read-out: EC50 α4β7
# How it was run: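 RPMI8866 cells in DMEM + 0.5% FBS + 0.5 mM MnCl2 preincubated with compound 1 h at 37 °C, then allowed to bind 30 min at 37 °C to plates coated with MAdCAM-1 extracellular domain (1.0 μg/mL). Cells fixed with glutaraldehyde, Hoechst-stained, imaged and bound cells counted; EC50 from cell count versus concentration.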
row,EC50 [nM],Structure (SMILES)
1,0.9,"COc1cccc(OC)c1-c1ccc(CC(NC(=O)c2c(F)cc(NS(=O)(=O)c3ccc(-n4cncn4)cc3)cc2F)C(=O)O)c2cnccc12 (stereo not drawn) [Example 163, 2-(4-((4-(1H-1,2,4-triazol-1-yl)phenyl)sulfonamido)-2,6-difluorobenzamido)-3-(5-(2,6-dimethoxyphenyl)isoquinolin-8-yl)propanoic acid]"
2,0.6,"CCOCc1cc(OC)c(-c2ccc(CC(NC(=O)c3c(F)cc(NS(=O)(=O)c4ccc(-c5ccnc(F)c5)cc4)cc3F)C(=O)O)c3cnn(C)c23)c(OC)c1 (stereo not drawn) [Example 146, 2-(2,6-difluoro-4-((4-(2-fluoropyridin-4-yl)phenyl)sulfonamido)benzamido)-3-(7-(4-(ethoxymethyl)-2,6-dimethoxyphenyl)-1-methyl-1H-indazol-4-yl)propanoic acid]"
3,15.4,"Cc1c(-c2ccc(C[C@H](NC(=O)c3c(Cl)cccc3Cl)C(=O)O)c3ncccc23)c(=O)n(C)c2ccc(C3CC3)cc12 [Example 71, (S)-3-(6-cyclopropyl-1,4-dimethyl-2-oxo-1,2-dihydro-[3,5′-biquinolin]-8′-yl)-2-(2,6-dichlorobenzamido)propanoic acid]"
4,8.3,"CC[C@@H](Nc1cc(F)c(C(=O)N[C@@H](Cc2ccc(-c3c(C(F)(F)F)cc(C)n(C)c3=O)c3ccccc23)C(=O)O)c(F)c1)C(F)(F)F (single isomer, unassigned) [Example 134]"
5,0.5,"Cc1c(-c2ccc(C[C@H](NC(=O)c3c(Cl)cccc3Cl)C(=O)O)c3ncccc23)c(=O)n(C)c2ccc(F)cc12 (single isomer, unassigned) [Example 11]"
6,1.7,"Cc1cc(C(F)(F)F)c(-c2ccc(C[C@H](NC(=O)c3c(F)cc(N4CCOC[C@@H]4C(F)(F)F)cc3F)C(=O)O)c3ccccc23)c(=O)n1C (single isomer, unassigned) [Example 128]"
7,46.4,"Cc1ccn(C)c(=O)c1-c1ccc(CC(NC(=O)c2c(Cl)cccc2Cl)C(=O)O)c2ncccc12 (stereo not drawn) [Example 30, 2-(2,6-Dichlorobenzamido)-3-(5-(1,4-dimethyl-2-oxo-1,2-dihydropyridin-3-yl)quinolin-8-yl)propanoic acid]"
8,23,"Cc1c(-c2ccc(C[C@H](NC(=O)c3c(Cl)cccc3Cl)C(=O)O)c3ncccc23)c(=O)n(C)c2ccc(Cl)cc12 (single isomer, unassigned) [Example 75]"
9,0.8,"CC[C@@H](Nc1cc(F)c(C(=O)N[C@@H](Cc2ccc(-c3c(C)n(C)c(=O)n(C)c3=O)c3cccnc23)C(=O)O)c(F)c1)C(F)(F)F (single isomer, unassigned) [Example 8]"
10,32.2,"COc1cc(F)c(F)cc1-c1ccc(C[C@H](NC(=O)c2c(Cl)cccc2Cl)C(=O)O)c2ncccc12 [Example 46, (S)-2-(2,6-dichlorobenzamido)-3-(5-(4,5-difluoro-2-methoxyphenyl)quinolin-8-yl)propanoic acid]"
11,13.7,"CC[C@@H](Nc1cc(F)c(C(=O)N[C@@H](Cc2ccc(-c3c(C)cc(C)n(C)c3=O)c3ccccc23)C(=O)O)c(F)c1)C(F)(F)F (single isomer, unassigned) [Example 132]"
12,10.7,"Cn1c(=O)c(-c2ccc(C[C@H](NC(=O)c3c(Cl)cccc3Cl)C(=O)O)c3ncccc23)c(C(F)(F)F)c2ccccc21 [Example 59, (S)-2-(2,6-dichlorobenzamido)-3-(1-methyl-2-oxo-4-(trifluoromethyl)-1,2-dihydro-[3,5′-biquinolin]-8′-yl)propanoic acid]"
13,0.1,"Cc1cc(C(F)(F)F)c(-c2ccc(C[C@H](NC(=O)c3c(F)cc(N4CCOC[C@@H]4C(F)(F)F)cc3F)C(=O)O)c3nccnc23)c(=O)n1C (atropisomer, axis not shown) [Example 179]"
14,5.8,"CCOCc1cc(OC)c(-c2ccc(C[C@H](NC(=O)c3c(F)cc(NS(=O)(=O)c4ccc(-c5ccnc(F)c5)cc4)cc3F)C(=O)O)c3nc(C)oc23)c(OC)c1 [Example 151, (S)-2-(2,6-difluoro-4-((4-(2-fluoropyridin-4-yl)phenyl)sulfonamido)benzamido)-3-(7-(4-(ethoxymethyl)-2,6-dimethoxyphenyl)-2-methylbenzo[d]oxazol-4-yl) propanoic acid]"
15,0.4,"CCOCc1cc(OC)c(-c2ccc(C[C@H](NC(=O)c3c(F)cc(NS(=O)(=O)c4ccc(-c5ccnc(F)c5)cc4)cc3F)C(=O)O)c3cnn(C)c23)c(OC)c1 (single isomer, unassigned) [Example 147]"
16,0.5,"COc1cc(C)n(C)c(=O)c1-c1ccc(C[C@H](NC(=O)c2c(F)cc(N3CCOC[C@@H]3C(F)(F)F)cc2F)C(=O)O)c2ccccc12 (single isomer, unassigned) [Example 125]"
17,38.8,"COc1cc(F)cc(Cl)c1-c1ccc(C[C@H](NC(=O)c2c(Cl)cccc2Cl)C(=O)O)c2ncccc12 (single isomer, unassigned) [Example 54]"
18,4.1,"CC[C@@H](Nc1cc(F)c(C(=O)N[C@@H](Cc2ccc(-c3c(C)n(C)c(=O)n(C)c3=O)c3cccnc23)C(=O)O)c(F)c1)C(F)(F)F (single isomer, unassigned) [Example 9]"
19,393,"O=C(N[C@@H](Cc1ccc(-c2c(Cl)cc(F)cc2Cl)c2cccnc12)C(=O)O)c1c(F)cc(N[C@H](c2ccccc2)C(F)(F)F)cc1F [Example 3, (S)-3-(5-(2,6-dichloro-4-fluorophenyl)quinolin-8-yl)-2-(2,6-difluoro-4-(((R)-2,2,2-trifluoro-1-phenylethyl)amino)benzamido)propanoic acid]"
20,1.5,"Cc1c(-c2ccc(C[C@H](NC(=O)c3c(F)cccc3F)C(=O)O)c3ccccc23)c(=O)n(C)c2ccccc12 (single isomer, unassigned) [Example 120]"
21,1.7,"CCOCc1cc(OC)c(-c2ccc(C[C@@H](NC(=O)c3c(F)cc(NS(=O)(=O)c4ccc(-c5ccnc(F)c5)cc4)cc3F)C(=O)O)c3ccncc23)c(OC)c1 (single isomer, unassigned) [Example 162]"
22,3.6,"Cc1cnc(-c2ccc(C[C@H](NC(=O)c3c(F)cc(N4CCOC[C@@H]4C(F)(F)F)cc3F)C(=O)O)c3ccccc23)nc1C [Example 141, (S)-2-(2,6-difluoro-4-((R)-3-(trifluoromethyl)morpholino)benzamido)-3-(4-(4,5-dimethylpyrimidin-2-yl)naphthalen-1-yl)propanoic acid]"
23,2.5,"Cc1c(-c2ccc(C[C@H](NC(=O)c3c(Cl)cccc3Cl)C(=O)O)c3ccccc23)c(=O)n(C)c2ccccc12 (single isomer, unassigned) [Example 118]"
24,0.8,"CCOCc1cc(OC)c(-c2ccc(C[C@H](NC(=O)c3c(F)cc(NS(=O)(=O)c4ccc(-c5ccnc(F)c5)cc4)cc3F)C(=O)O)c3ccccc23)c(OC)c1 [Example 105, (S)-2-(2,6-difluoro-4-((4-(2-fluoropyridin-4-yl)phenyl)sulfonamido)benzamido)-3-(4-(4-(ethoxymethyl)-2,6-dimethoxyphenyl)naphthalen-1-yl)propanoic acid]"
